According to patent US7507727B2, “Substituted quinobenzoxazine analogs and methods of using thereof” (Cylene Pharmaceuticals, Inc., priority 2003, dated 2009):
Read-outs that look alike come from different tables or passages of the source.

Assays:
[1] = molecular target: c-Myc template DNA (c-myc quadruplex); assay: Quadruplex binding / stop assay (Taq polymerase arrest, capillary electrophoresis)
HeLa cells = assay: MTS cell proliferation and/or cytotoxicity assay; assay type: cell-based, Human; settings: Homo sapiens, HeLa
Method: Cell culture. Human cervical epithelial cells (HeLa cells) were obtained from American Type Culture Collection (Manassas, Va.). Cells were grown in Eagle's minimum essential medium (MEM, Hyclone, Utah) supplemented with 2 mM Glutamine, 0.1 mM nonessential amino acid, 1 mM Na Pyruvate, 1.5 g/L NaHCO3, 50 mg/L gentamicin, and 10% fetal bovine serum (Hyclone, USA) in a humidified atmosphere of 5% CO2 at 37° C.
MTS assays. Antiproliferative effects of the compounds were tested by the CellTiter 96 AQueous assay (Promega, WI), which is a calorimetric assay for determining the number of viable cells. (See, e.g., Wang, L., et al., Methods Cell Sci (1996) 18:249-255). In one example, cells (4,500 cells/well) were seeded on 96 well flat bottom plates (Corning, N.Y.) in 100 μl of culture medium without any anticancer drug on day 0, and the culture medium was exchanged for that //contained anticancer drugs at various concentrations on day 1. After incubation for 3 days under normal growth conditions (on day 4), the monolayers were washed once in PBS, and the medium was switched to 100 μl of PBS in each of the 96 well plate. After mixing MTS and PMS at the ratio of 20:1, 20 μl of MTS/PMS solution was added to each of the 96 well plate and incubated for 4 hours in a humidified atmosphere of 5% CO2 at 37° C. The absorbance was read at 490 nm using FLUOstar Galaxy 96 well plate reader (BMG Labtechnologies, Germany). μM concentrations (MTS data) reported in Table 1 are concentrations at which 50% of antiproliferative cell response is seen.

[2] = read-out: Stop Data c-Myc μM, concentration at which 50% of the DNA was arrested (arrested:full-length 1:1)
[3] = 72 h, concentration at which 50% of antiproliferative cell response is seen, 3 days incubation, read-out: MTS Data Hella
[4] = read-out: S DATA, Table 1D, stop assay data
[5] = HeLa cells, MTS, read-out: Hela MTS

Row | SMILES | IC50 [1, 2] [µM] | IC50 (HeLa cells; [3]) [nM] | IC50 [1, 4] [µM] | IC50 (HeLa cells; [5]) [nM]
1 | CN1CCCC1CCNC(=O)c1cn2c3c(c(NCCCN4CCOCC4)c(F)cc3c1=O)Oc1cc3c(cc1-2)oc1ccccc13 (stereo not drawn) [compound 362] | 0.75 | 4000 | – | –
2 | CN1CCCC1CCNC(=O)c1cn2c3c(c(N4CCC(c5cnccn5)C4)c(F)cc3c1=O)Oc1cc3ccccc3cc1-2 (stereo not drawn) [compound 1512] | – | – | 0.78 | 3100
3 | CN1CCCC1CCNC(=O)c1cn2c3c(c(N4CCC(c5cnccn5)C4)c(F)cc3c1=O)Oc1cc3ccccc3cc1-2 (stereo not drawn) [compound 516] | 0.375 | 2300 | – | –
4 | CN1CCCC1CCNC(=O)c1cn2c3c(c(N4CC[C@H](N)C4)c(F)cc3c1=O)Oc1ccccc1-2 (stereo partly drawn) [compound 36] | 3 | 160 | – | –
5 | CN1CCCC1CCNC(=O)c1cn2c3cc4oc5cc([N+](=O)[O-])ccc5[nH]c4cc3oc3c(NCCN4CCCC4)c(F)cc(c1=O)c32 (stereo not drawn) [compound 570] | 0.18 | 6800 | – | –
6 | CN(C)CCCCNc1c(F)cc2c(=O)c(C(=O)NCCCn3ccnc3)cn3c2c1Oc1cc2c(cc1-3)oc1ccccc12 [compound 509] | 0.375 | 3100 | – | –
7 | CN(C)CCCCNC(=O)c1cn2c3c(c(N4CC[C@H](N)C4)c(F)cc3c1=O)Oc1cc3ccccc3cc1-2 [compound 475] | 0.58 | 240 | – | –
8 | Nc1c(F)c(NCCCN2CCOCC2)c2c3c1c(=O)c(C(=O)NCCN1CCCC1)cn3-c1cc3ccccc3cc1O2 [compound 377] | 0.75 | 2200 | – | –
9 | CCN(CC)CCCC(C)NC(=O)c1cn2c3c(c(N4CCC(N)C4)c(F)cc3c1=O)Oc1cc3ccccc3cc1-2 (stereo not drawn) [compound 542] | 0.375 | 230 | – | –
10 | CN1CCN(CCC(=O)N[C@@H]2CCN(c3c(F)cc4c(=O)c(C(=O)NCCC5CCCN5C)cn5c4c3Oc3cc4c(cc3-5)oc3ccccc34)C2)CC1 (stereo partly drawn) [compound 360] | 0.75 | 4500 | – | –
11 | O=C(NCCN1CCOCC1)c1cn2c3c(c(NCCCN4CCOCC4)c(F)cc3c1=O)Oc1cc3c(cc1-2)oc1ccccc13 [compound 361] | 0.75 | 4200 | – | –
12 | CN(C)CC(C)(C)CNC(=O)c1cn2c3c(c(N4CC5CCCNC5C4)c(F)cc3c1=O)Oc1cc3ccccc3cc1-2 (stereo not drawn) [compound 1644] | – | – | 0.375 | 650
13 | N[C@@H]1CCN(c2c(F)cc3c(=O)c(C(=O)NCCCN4CCOCC4)cn4c3c2Oc2cc3ccccc3cc2-4)C1 [compound 386] | 0.75 | 340 | – | –
14 | CN1CCCC1CCNC(=O)c1cn2c3c(c(NCCc4c[nH]cn4)c(F)cc3c1=O)Oc1cc3ccccc3cc1-2 (stereo not drawn) [compound 1657] | – | – | 0.375 | 500
15 | CN(C)CCCCNC(=O)c1cn2c3c(c(N4CC5CCCNC5C4)c(F)cc3c1=O)Oc1cc3ccccc3cc1-2 (stereo not drawn) [compound 1639] | – | – | 0.375 | 100
16 | CC1(C)CC(NC(=O)c2cn3c4c(c(N5CCC(N)C5)c(F)cc4c2=O)Oc2cc4ccccc4cc2-3)CC(C)(C)N1 (stereo not drawn) [compound 539] | 0.375 | 280 | – | –
17 | O=C(NCCCN1CCOCC1)c1cn2c3cc4c(cc3oc3c(NCCN5CCCC5)c(F)cc(c1=O)c32)c(=O)c1ccccc14 [compound 502] | 0.375 | 4000 | – | –
18 | CN1CCCC1CCNC(=O)c1cn2c3c(c(N4CC5CCCNC5C4)c(F)cc3c1=O)Oc1cc3ccccc3cc1-2 (stereo not drawn) [compound 546] | 0.375 | 100 | – | –
19 | O=C(NCCCN1CCOCC1)c1cn2c3c(c(N4CC5CCCNC5C4)c(F)cc3c1=O)Oc1cc3ccccc3cc1-2 (stereo not drawn) [compound 547] | 0.375 | 100 | – | –
20 | CN1CCCC1CCNC(=O)c1cn2c3c(c(NCCN4CCOCC4)c(F)cc3c1=O)Oc1cc3ccccc3cc1-2 (stereo not drawn) [compound 57] | 2.5 | – | – | –
21 | Nc1c(F)c(NCCCN2CCOCC2)c2c3c1c(=O)c(C(=O)NCCN1CCOCC1)cn3-c1cc3ccccc3cc1O2 [compound 221] | 1.75 | – | – | –
22 | CC(C)N1CCN(c2c(F)cc3c(=O)c(C(=O)NCCN4CCCC4)cn4c3c2Oc2cc(Cl)ccc2-4)CC1 [compound 1797] | – | – | 8 | –
23 | N=C(N)NCCCNC(=O)c1cn2c3c(c(N4CC5CCCNC5C4)c(F)cc3c1=O)Oc1cc3ccccc3cc1-2 (stereo not drawn) [compound 327] | 1 | – | – | –
24 | COc1ccc(CCNc2c(F)cc3c(=O)c(C(=O)NCCC4CCCN4C)cn4c3c2Oc2cc3ccccc3cc2-4)cc1 (stereo not drawn) [compound 286] | 1.75 | – | – | –

Row | SMILES | IC50 [1, 2] [µM] | IC50 (HeLa cells; [3]) [nM] | IC50 [1, 4] [µM] | IC50 (HeLa cells; [5]) [nM]
25 | CN(C)c1c(F)cc2c(=O)c(C(=O)O)cn3c4cc5oc6cc(N)ccc6[nH]c5cc4oc1c23 [compound 10] | 1.75 | – | – | –
26 | CN1CCC[C@H]1CCNC(=O)c1cn2c3c(c(SCCc4cnccn4)c(F)cc3c1=O)Oc1cc3ccccc3cc1-2 [compound 1770] | – | – | 4.7 | –
27 | CN1CCCC1CCNC(=O)c1cn2c3c(c(NCCc4c[nH]c5ccccc45)c(F)cc3c1=O)Oc1cc3ccccc3cc1-2 (stereo not drawn) [compound 287] | 1.75 | – | – | –
28 | CN1CCCC1CCNC(=O)c1cn2c3c(c(NCCC4CCCN4C)c(F)cc3c1=O)Oc1cc3ccccc3cc1-2 (stereo not drawn) [compound 124] | 1.75 | – | – | –
29 | N[C@@H]1CCN(c2c(F)cc3c(=O)c(C(=O)NCCCN4CCOCC4)cn4c3c2Oc2c-4ccc3ccccc23)C1 [compound 103] | 1.8 | – | – | –
30 | CN1CCCC1CCNC(=O)c1cn2c3cc4oc5cc([N+](=O)[O-])ccc5[nH]c4cc3oc3c(NCCN4CCOCC4)c(F)cc(c1=O)c32 (stereo not drawn) [compound 407] | 0.75 | – | – | –
31 | O=C(NCCCN1CCOCC1)c1cn2c3c(c(NCCCN4CCOCC4)ccc3c1=O)Oc1cc3ccccc3cc1-2 [compound 1530] | – | – | > 15 | –
32 | NC1CCN(c2c(F)cc3c(=O)c(C(=O)NCCCN4CCOCC4)cn4c5cc6c(=O)c7ccccc7c(=O)c6cc5oc2c34)C1 (stereo not drawn) [compound 551] | 0.375 | – | – | –
33 | C[C@@H](O)CNC(=O)c1cn2c3c(c(N4CCC(N)C4)c(F)cc3c1=O)Oc1cc3ccccc3cc1-2 (stereo partly drawn) [compound 1708] | – | – | > 15 | –
34 | CN1CCN(CCCNC(=O)c2cn3c4cc5c(cc4oc4c(N6CC[C@H](NC(=O)OC(C)(C)C)C6)c(F)cc(c2=O)c43)c(=O)c2ccccc25)CC1 [compound 427] | 0.75 | – | – | –
35 | CN1CCCC1CCNc1c(F)cc2c(=O)c(C(=O)N3CC[C@@H](N)C3)cn3c2c1Oc1c-3ccc2ccccc12 (stereo partly drawn) [compound 85] | 2.5 | – | – | –
36 | CN(C)c1ccccc1CNC(=O)c1cn2c3c(c(N4CCC(N)C4)c(F)cc3c1=O)Oc1cc3ccccc3cc1-2 (stereo not drawn) [compound 1715] | – | – | > 15 | –
37 | CN1CCN(CCCNC(=O)c2cn3c4cc5c(=O)c6ccccc6c(=O)c5cc4oc4c(NCCCN5CCN(C)CC5)c(F)cc(c2=O)c43)CC1 [compound 350] | 0.9 | – | – | –
38 | NC1CCN(c2c(F)cc3c(=O)c(C(=O)NCc4ccccc4N4CCOCC4)cn4c3c2Oc2cc3ccccc3cc2-4)C1 (stereo not drawn) [compound 248] | 1.75 | – | – | –
39 | CN1CCCC1CCNC(=O)c1cn2c3c(c(NC4CCCNC4)c(F)cc3c1=O)Oc1cc3ccccc3cc1-2 (stereo not drawn) [compound 433] | 0.75 | – | – | –
40 | CC(C)(C)OC(=O)N[C@@H]1CCN(C(=O)c2cn3c4c(c(NCCN5CCOCC5)c(F)cc4c2=O)Oc2cc4ccccc4cc2-3)C1 [compound 56] | 2.5 | – | – | –
41 | CN(C)CCCCNc1c(F)cc2c(=O)c(C(=O)Nc3ccc(N(C)C)cc3)cn3c2c1Oc1c-3ccc2ccccc12 [compound 76] | 2.5 | – | – | –
42 | N[C@H]1CCN(C(=O)c2cn3c4cc5c(cc4oc4c(NCCN6CCCC6)c(F)cc(c2=O)c43)c(=O)c2ccccc25)C1 [compound 214] | 1.75 | – | – | –
43 | CN(C)CCCCNC(=O)c1cn2c3cc4oc5cc([N+](=O)[O-])ccc5[nH]c4cc3oc3c(NCCCN4CCOCC4)c(F)cc(c1=O)c32 [compound 555] | 0.375 | – | – | –
44 | CN1CCCC1CCNc1c(F)cc2c(=O)c(C(=O)NCCN3CCCC3)cn3c2c1Oc1cc2c(cc1-3)oc1ccccc12 (stereo not drawn) [compound 87] | 2.5 | – | – | –
45 | CN1CCN(CCCNC(=O)c2cn3c4c(c(NCCN5CCOCC5)c(F)cc4c2=O)Oc2cc4c(cc2-3)oc2ccccc24)CC1 [compound 146] | 1.75 | – | – | –
46 | O=C(NCCCN1CCOCC1)c1cn2c3c(c(NCCN4CCOCC4)c(F)cc3c1=O)Oc1ccccc1-2 [compound 1604] | – | – | > 15 | –
47 | CCc1ccc(CCNc2c(F)cc3c(=O)c(C(=O)NCCC4CCCN4C)cn4c3c2Oc2cc3ccccc3cc2-4)cc1OC (stereo not drawn) [compound 1679] | – | – | 0.69 | –
